What was measured:
Experiment in all cases: Example B2 herbicidal action, post-emergence, pots in glasshouse, damage score 0-10
Assay type in all cases: in vivo
Details in all cases: application post-emergence, rate 1000 g/ha, evaluated after 13 days
[1] = test system: Setaria faberi
Experimental: (§1) Seeds of a variety of test species were sown in standard soil in pots. After 8 days cultivation (post-emergence) under controlled conditions in a glasshouse (at 24/16° C., day/night; 14 hours light; 65% humidity), the plants were sprayed with an aqueous spray solution derived from the formulation of the technical active ingredient in acetone/water (50:50) solution containing 0.5% Tween 20 (polyoxyethelyene sorbitan monolaurate, CAS RN 9005-64-5). The test plants were then grown in a glasshouse under controlled conditions in a glasshouse (at 24/16° C., day/night; 14 hours light; 65% humidity) and watered twice daily. After 13 days, the test was evaluated (10=total damage to plant; 0=no damage to plant).

[2] = test system: Solanum nigrum
Experimental: as §1

[3] = test system: Ipomea hederaceae
Experimental: as §1

[4] = test system: Amaranthus retroflexus
Experimental: as §1

[5] = test system: Echinochloa crus-galli
Experimental: as §1

SMILES | SETFA damage score (10=total damage to plant; 0=no damage to plant) [1] | SOLNI damage score (10=total damage to plant; 0=no damage to plant) [2] | IPOHE damage score (10=total damage to plant; 0=no damage to plant) [3] | AMARE damage score (10=total damage to plant; 0=no damage to plant) [4] | ECHCG damage score (10=total damage to plant; 0=no damage to plant) [5]
COc1ccc(Cl)c(C2=C(O)c3nccnc3N(CC(F)F)S2(=O)=O)c1F [Compound D60] | 2 | 7 | 8 | 1 | 4
CC(C)C(=O)OC1=C(c2cccc(Cl)c2Cl)S(=O)(=O)N(CC(F)F)c2nccnc21 [Compound C102] | 0 | 7 | 6 | 1 | 0
CC(C)(C)C(=O)OC1=C(c2cc(C(F)(F)F)ccc2Cl)S(=O)(=O)N(CC(F)F)c2nccnc21 [Compound C34, 2,2-dimethyl-propionic acid 3-(2-chloro-5-trifluoromethyl-phenyl)-1-(2,2-difluoro-ethyl)-2,2-dioxo-1,2-dihydro-2-λ-6-thia-1,5,8-triaza-naphthalen-4-yl ester] | 2 | 9 | 10 | 7 | 7
CSC(=O)OC1=C(c2ccc(C(F)(F)F)cc2C(F)(F)F)S(=O)(=O)N(CC(F)F)c2nccnc21 [Compound C131] | 2 | 10 | 9 | 9 | 4
CCSC(=O)OC1=C(c2cc(F)c(Cl)cc2Cl)S(=O)(=O)N(CC(F)F)c2nccnc21 [Compound C88] | 4 | 9 | 9 | 9 | 6
CCN1c2nccnc2C(OC(=O)C(C)C)=C(c2ccccc2[N+](=O)[O-])S1(=O)=O [Compound C67] | 0 | 1 | 2 | 0 | 0
CCN1c2nccnc2C(OC(=O)C(C)(C)C)=C(c2c(F)ccc(Cl)c2Cl)S1(=O)=O [Compound C16] | 0 | 10 | 7 | 7 | 3
O=S1(=O)C(c2cccc(Cl)c2Cl)=C(O)c2nccnc2N1CC(F)F [Compound D50] | 2 | 10 | 8 | 5 | 1
CC(C)C(=O)OC1=C(c2cc(C(F)(F)F)ccc2Cl)S(=O)(=O)N(CC(F)F)c2nccnc21 [Compound C91] | 3 | 9 | 10 | 9 | 6
CCN1c2nccnc2C(O)=C(c2cccc(C(F)(F)F)c2Cl)S1(=O)=O [Compound D38] | 0 | 8 | 5 | 9 | 1
